Test results from patent US11844823B2, “Beta-hairpin peptidomimetic with elastase inhibitory activity and aerosol dosage forms thereof” (POLYPHOR AG, priority 2016, dated 2023).
Non-standard residues stand in square brackets, D forms with d. Residues, ends and D or L forms follow the SMILES beside them. Gly(octyl) = CCCCCCCC[C@H](N)C(=O)O

System: neutrophil elastase
Assay: LPS/fMLP model of neutrophil activation in the rat, inhalation; neutrophil elastase activity in BAL supernatant
Type: in vivo
Conditions: for NE activity in BAL fluid: mean ± s.e.m., vehicle 0.25 ± 0.02, p < 0.0001
Procedure: The purpose of this study (conducted by Envigo CRS Limited, Alconbury, Huntingdon, United Kingdom) was to evaluate the effects of acetate salt of cyclo(-OctG-Glu-Thr-Ala-Ser-Ile-Pro-Pro-Gln-Lys-Tyr-^DPro-Pro-) administered by inhalation in a LPS/fMLP model of neutrophil activation in the rat.
Animals were challenged with aerosolized LPS (lipopolysaccharide, 1 mg/mL) for 30 min. Approximately 3 h following end of LPS challenge, animals were administered either vehicle or formulations as described above of acetate salt of cyclo(-OctG-Glu-Thr-Ala-Ser-Ile-Pro-Pro-Gln-Lys-Tyr-^DPro-Pro-) by inhalation (Groups 1-4) over a 30 min period using an eFlow® 30 XL electronic nebulizer (Pari Pharma GmbH, Starnberg, Germany; snout only exposure). All animals were dosed with fMLP (N-formyl-Met-Leu-Phe, 5 mg/kg) approximately 4 h post completion of the LPS challenge via the intratracheal route under transient gaseous anaesthesia at a dose volume of 1 mL/kg. Approximately 2 h after fMLP administration, animals were terminated and a bronchoalveolar lavage (BAL) was performed to evaluate inflammatory cell infiltrate and neutrophil elastase activity.
Following confirmation of death, the trachea of an animal was isolated, the tracheal cannula inserted and secured in place, and the airway was lavaged with 3 mL of phosphate buffered saline (PBS). The lavage was repeated twice and in total, three lots of 3 mL of PBS were used. The first lavage aliquot containing cells was placed into a 15 mL centrifuge tube on wet ice (Tube A). The BAL fluid pooled from the second two lavages was placed into a second tube (Tube B). Tube A and B were placed on wet ice until centrifuged. Centrifugation was performed at 800×g for 10 min at ca. 4° C. and the supernantant was harvested. Until neutrophil elastase analysis supernantant was stored at ca. […].
The two aliquots of BAL supernatant were analyzed for neutrophil elastase activity as follows: 120 μl of BAL supernatant from aliquot 1 was transferred to a 96 well plate (Corning #3650). In parallel, a dilution range from 1.6 to 0.025 mU/well of a commercial human neutrophil elastase (hNE, Serva #20927.01) was prepared. 120 μl of each hNE dilution were transferred in duplicate to the 96-well plate. To start the enzymatic reaction, 80 μl of a fluorescent peptide substrate (MeOSuc-Ala-Ala-Pro-Val-AMC) at a final concentration of 500 μM was added to each well and the plate was immediately placed in the victor2v fluorescent reader pre-warmed at 37° C. Fluorescence (λexc. 485 nm, λem. 535 nm) was recorded for 2 h at 37° C. Enzyme initial velocity (RFU/min) of all samples was calculated and converted in mU/mL hNE equivalent, using the linear regression equation obtained from the plot (RFU/min vs mU/mL of hNE dilution) of the human neutrophil elastase standard range. The assay was repeated using BAL supernatant from aliquot 2. The neutrophil elastase data reported is a mean of the neutrophil elastase activity from both aliquots.

## CCCCCCCC[C@@H]1NC(=O)[C@@H]2CCCN2C(=O)[C@H]2CCCN2C(=O)[C@H](Cc2ccc(O)cc2)NC(=O)[C@H](CCCCN)NC(=O)[C@H](CCC(N)=O)NC(=O)[C@@H]2CCCN2C(=O)[C@@H]2CCCN2C(=O)[C@H]([C@@H](C)CC)NC(=O)[C@H](CO)NC(=O)[C@H](C)NC(=O)[C@H]([C@@H](C)O)NC(=O)[C@H](CCC(=O)O)NC1=O [cyclo(-OctG-Glu-Thr-Ala-Ser-Ile-Pro-Pro-Gln-Lys-Tyr-^DPro-Pro-)] (cyclo([Gly(octyl)]ETASIPPQKY[dP]P))
0.3 mg/kg inhalation
  NE activity in BAL fluid: 0.10 ± 0.01 mU/mL eq.
3 mg/kg inhalation
  NE activity in BAL fluid: 0.11 ± 0.01 mU/mL eq.
30 mg/kg inhalation
  NE activity in BAL fluid: 0.07 ± 0.01 mU/mL eq.
0.3, 3 and 30 mg/kg by inhalation 3 h post LPS, 1 h prior to fMLP, BAL 6 h post LPS
  effect on neutrophil elastase activity in BAL fluid: significantly inhibited
rat, inhalation 0.3-30 mg/kg
  clinical signs between dosing and study termination: No test item related clinical signs
